Data published in ChEMBL document CHEMBL5608141, “Identification of compartment-specific drug sensitivities in CRC organoid-stroma co-cultures” (2024).

Key:
Type in all cases: functional, Homo sapiens
Set-up in all cases: dose or concentration left out as unconfirmed
[1] = test system: Colon cancer organoid; experiment: Identification of compartment-specific drug sensitivities in O06 CRC organoid-stroma F06 CAF co-cultures. Organoid is transduced with Lucferase2-P2A-EGFP lentivirus, fibroblast with Renilla-dsRed lentivirus. Dual-Glo Luciferase assay is used to report viability data.
[2] = test system: Colon cancer organoid; experiment: Identification of compartment-specific drug sensitivities in O14 CRC organoid-stroma F14 CAF co-cultures. Organoid is transduced with Lucferase2-P2A-EGFP lentivirus, fibroblast with Renilla-dsRed lentivirus. Dual-Glo Luciferase assay is used to report viability data.
[3] = test system: Colon cancer organoid; experiment: Identification of compartment-specific drug sensitivities in O20 CRC organoid-stroma F20 CAF co-cultures. Organoid is transduced with Lucferase2-P2A-EGFP lentivirus, fibroblast with Renilla-dsRed lentivirus. Dual-Glo Luciferase assay is used to report viability data.
[4] = Transduced with Lucferase2-P2A-EGFP lentivirus
[5] = Transduced with Renilla-dsRed lentivirus

| Compound | Cell Viability [1, 4] [%] | Cell Viability [1, 5] [%] | Cell Viability [2, 4] [%] | Cell Viability [2, 5] [%] | Cell Viability [3, 4] [%] | Cell Viability [3, 5] [%] |
| --- | --- | --- | --- | --- | --- | --- |
| O=c1nc(-c2ccccn2)sc2ccccc12 [BTZO-1] | 109.998 | 128.099 | 117.78 | 105.233 | 113.092 | 104.485 |
| C[C@@H](Oc1cc(-n2cnc3ccc(CN4CCN(C)CC4)cc32)sc1C(N)=O)c1ccccc1C(F)(F)F [GSK-461364] | 8.2073 | 127.3 | 14.2355 | 96.4779 | 35.9092 | 141.481 |
| CN1CCN(c2ccnc(NCCc3ccccc3)n2)CC1 [TP-040n] | 57.9985 | 123.721 | 106.261 | 101.91 | 67.1911 | 97.5889 |
| CCn1cc(-c2cccc(C(F)(F)F)c2)c2sc(C(=N)NC3CCS(=O)(=O)CC3)cc2c1=O | 95.4713 | 165.165 | 135.151 | 119.275 | 61.0963 | 124.144 |
| CCC(=O)N[C@H]1CC[C@@H](C(=O)N(C)c2ccc(-c3nc4ccccc4o3)cc2)C1 [BI 99179] | 14.7827 | 191.434 | 77.0742 | 106.772 | 33.9891 | 149.12 |
| Cl.Cn1cncc1[C@](O)(COc1ccc(C#N)cc1-c1ccc(OC(F)(F)F)cc1)c1ccc(C#N)cc1 | 46.0933 | 149.066 | 31.1337 | 75.4889 | 15.3114 | 150.357 |
| COCCc1ccc(-c2c(C)nc3c(N4CCOCC4)ccnn23)cn1 [JNJ-42396302] | 121.378 | 128.188 | 94.533 | 84.3411 | 126.017 | 102.271 |
| Cc1cc(C)cc([C@@H]2c3cc(C)ccc3NC(=O)CN2C(=O)c2ccc(Br)s2)c1 | 107.168 | 464.523 | 110.484 | 405.65 | 135.909 | 541.943 |
| Cc1cc(=O)n(C)c2cc(N3C(=O)CC[C@H](NS(=O)(=O)CC(C)C)[C@H]3c3ccc(Cl)cc3)ccc12 | 117.914 | 167.751 | 95.8197 | 121.413 | 108.181 | 166.434 |
| COCC(=O)NC/C=C/c1ccc2ncnc(Nc3ccc(Oc4ccc(C)nc4)c(C)c3)c2c1 [CP-724714] | 64.178 | 58.1065 | 105.334 | 107.19 | 97.2693 | 94.0282 |
| CC[C@H](CC(=O)O)n1c(=O)c2ncccc2n(Cc2cn(C)c3cc(C)cc(C)c23)c1=O [BI-1942] | 119.907 | 136.619 | 102.331 | 109.089 | 108.303 | 100.799 |
| COc1ncc(F)cc1CNc1ccc(Cc2c[nH]c3ncc(C)cc23)c(F)n1 [PLX-5622] | 82.7626 | 63.3822 | 119.621 | 35.1649 | 206.903 | 55.6932 |
| Cn1cc(C2=C(c3cn(C4CCN(Cc5ccccn5)CC4)c4ccccc34)C(=O)NC2=O)c2ccccc21 [ENZASTAURIN] | 65.6638 | 92.7001 | 80.1065 | 85.9175 | 54.6044 | 78.6109 |
| COc1cc(-c2cn([C@H]3CCc4c(F)cccc4N(CC(F)(F)F)C3=O)nn2)ccc1-n1cnc(C)c1 | 62.2519 | 94.2085 | 128.088 | 98.8677 | 119.382 | 109.286 |
| CCOC(=O)CCNc1cc(N2CCc3ccccc3CC2)nc(-c2ccccn2)n1 | 103.039 | 116.98 | 102.142 | 98.2806 | 101.525 | 127.032 |
| Cn1cc(-c2ccc3occ(-c4ccccc4-c4ccccc4)c3n2)cn1 | 43.2566 | 104.957 | 109.875 | 78.5125 | 88.7548 | 89.3741 |
| COCCN1CCC(c2cc(CN(C)C(=O)c3cccc(Oc4ccccc4)c3)ccn2)CC1 | 91.2389 | 131.922 | 131.353 | 104.266 | 94.6976 | 115.605 |
| Cn1c(C2(NC(=O)c3ccc4c(C5CCCC5)c(-c5ncc(Br)cn5)n(C)c4c3)CCC2)nc2ccc(/C=C/C(=O)O)cc21 [DELEOBUVIR] | 117.892 | 131.89 | 99.2157 | 60.0807 | 79.9036 | 130.288 |
| Cc1c(N2CCCC2)nc2ccc(Br)cc2c1C(=O)NC[C@H](CCC(=O)O)c1ccccc1Cl [BAY-6672] | 132.373 | 142.298 | 108.299 | 92.2123 | 83.1045 | 119.315 |
